Results reported in EP4737451A1 (Dong Wha Pharm. Co., Ltd., priority 2023, dated 2025).
pIC50: −log10 of the molar value.

Columns and labels:
[1] = target: T1, IRAK1 enzyme (Homo sapiens, UniProt P51617); assay: IRAK1 enzyme activity inhibition (ADP-Glo, Promega kit); type: biochemical; settings: for inhibition at 0.1 µM: test compound 0.1 uM
T1 construct: purchased Promega VA7477
Procedure: An experiment on IRAK1 enzyme activity inhibition of the compound of the present invention was conducted.
An IRAK1 enzyme kit (purchased from Promega, product number: VA7477) was used to dilute a mixed solution between 0.1 µg/µL of protein kinase B (AKT), which is an enzyme-reactive substrate, and 1.25 mM of ATP with a reaction buffer (40 mM Tris-HCl, pH 7.5; 20 mM MgCl2; 0.1 mg/mL BSA; 50 µM DTT) according to the instructions, so as to dispense 2 µL in a 384-well white plate, and then to add 1 µL of a test compound, which was gradient diluted starting from 1 mM, to a 384-well white plate. After that, an IRAK1 enzyme was diluted with a reaction buffer to a final concentration of 5 ng/µL, then 2 µL/well was dispensed into a 384-well white plate and reacted at 37°C for 60 minutes. After completion of a reaction, an ADP-GloTM enzyme test kit (purchased from Promega, product number: V9102) was used to add 5 µL of ADP-Glo reaction reagent and cause a reaction at 37°C for 40 minutes, and then 10 µL of enzyme chromogenic reagent was added again to measure a luminescence signal using equipment for measuring absorbance (THECAN, Microplate Reader). An activity inhibition rate was calculated from a measured value, and a 50% inhibition concentration (IC50 value) was analyzed through a non-linear regression analysis based on the % inhibition for each concentration of the test compound, and is shown in Table 3.

[2] = target: T2, IRAK4 enzyme (Homo sapiens, UniProt Q9NWZ3); assay: IRAK4 enzyme activity inhibition (ADP-Glo, Promega kit); type: biochemical
T2 construct: purchased Promega V2621
T2 sequence (Q9NWZ3 1-460): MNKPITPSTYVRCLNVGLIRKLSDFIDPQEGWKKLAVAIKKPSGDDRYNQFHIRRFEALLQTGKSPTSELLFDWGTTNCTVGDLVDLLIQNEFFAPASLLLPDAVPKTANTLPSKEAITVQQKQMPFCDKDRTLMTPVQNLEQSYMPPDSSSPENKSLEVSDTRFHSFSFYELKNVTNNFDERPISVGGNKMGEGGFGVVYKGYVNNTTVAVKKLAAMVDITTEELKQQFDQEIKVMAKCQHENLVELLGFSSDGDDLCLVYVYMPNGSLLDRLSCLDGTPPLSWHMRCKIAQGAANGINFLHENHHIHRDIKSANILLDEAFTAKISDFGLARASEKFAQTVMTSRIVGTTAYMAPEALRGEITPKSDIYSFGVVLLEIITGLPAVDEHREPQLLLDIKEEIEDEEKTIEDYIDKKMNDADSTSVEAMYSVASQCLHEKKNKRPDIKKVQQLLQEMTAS
Procedure: An experiment on IRAK4 enzyme activity inhibition of the compound of the present invention was conducted.
An IRAK4 enzyme kit (purchased from Promega, product number: V2621) was used to dilute a mixed solution between 0.1 µg/µL of myelin basic protein (MBP), which is an enzyme-reactive substrate, and 1.25 mM of ATP with a reaction buffer (40 mM Tris-HCl, pH 7.5; 20 mM MgCl2; 0.1 mg/mL BSA; 50 µM DTT) according to the instructions, so as to dispense 2 µL in a 384-well white plate, and then to add 1 µL of a test compound, which was gradient diluted starting from 1 mM, to a 384-well plate. After that, an IRAK4 enzyme was diluted with a reaction buffer to a final concentration of 5 ng/µL, then 2 µL/well was dispensed into a 384-well white plate and reacted at 37°C for 60 minutes. After completion of a reaction, an ADP-GloTM enzyme test kit (purchased from Promega, product number: V9102) was used to add 5 µL of ADP-Glo reaction reagent and cause a reaction at 37°C for 40 minutes, and then 10 µL of enzyme chromogenic reagent was added again to measure a luminescence signal using equipment for measuring absorbance (THECAN, Microplate Reader). An activity inhibition rate was calculated from a measured value, and a 50% inhibition concentration (IC50 value) was analyzed through a non-linear regression analysis based on the % inhibition for each concentration of the test compound, and is shown in Table 2.

T1 sequence (P51617 whole entry): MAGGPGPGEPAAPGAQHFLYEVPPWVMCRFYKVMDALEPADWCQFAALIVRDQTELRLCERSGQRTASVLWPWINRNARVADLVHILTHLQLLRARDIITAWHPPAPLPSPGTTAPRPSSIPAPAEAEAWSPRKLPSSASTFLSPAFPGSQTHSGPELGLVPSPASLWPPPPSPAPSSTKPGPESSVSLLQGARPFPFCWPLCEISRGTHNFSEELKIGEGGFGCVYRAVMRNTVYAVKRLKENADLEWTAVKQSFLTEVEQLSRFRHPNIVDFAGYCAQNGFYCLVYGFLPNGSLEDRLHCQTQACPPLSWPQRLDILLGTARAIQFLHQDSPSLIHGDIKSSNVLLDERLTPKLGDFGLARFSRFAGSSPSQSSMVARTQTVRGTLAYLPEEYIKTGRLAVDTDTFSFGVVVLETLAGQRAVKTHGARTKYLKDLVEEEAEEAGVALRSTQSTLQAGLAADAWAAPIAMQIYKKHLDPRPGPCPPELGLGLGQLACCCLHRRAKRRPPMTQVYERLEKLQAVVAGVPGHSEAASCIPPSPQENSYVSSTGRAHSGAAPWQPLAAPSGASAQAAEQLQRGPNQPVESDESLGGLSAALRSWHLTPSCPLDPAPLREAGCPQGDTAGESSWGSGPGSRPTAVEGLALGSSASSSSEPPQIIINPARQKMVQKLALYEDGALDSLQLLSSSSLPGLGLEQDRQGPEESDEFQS

Row | Compound | inhibition at 0.1 µM [1] | inhibition at 1 µM ([1]; test compound 1 uM) | inhibition at 0.1 µM ([2]; test compound 0.1 uM) | inhibition at 1 µM ([2]; test compound 1 uM) | other results
1 | CC(C)(O)CCn1cc2cc(NC(=O)c3cccc(S(N)(=O)=O)c3)c(-c3ccc(CN4CCOCC4)cc3)cc2n1 [Example 39, N-(2-(3-hydroxy-3-methylbutyl)-6-(4-(morpholinomethyl)phenyl)-2H-indazol-5-yl)-3-sulfamoylbenzamide] | 23% | 35.2% | 69.7% |  | 
2 | COCCn1cc2cc(NC(=O)c3cccc([N+](=O)[O-])c3)c(N3CCOCC3)cc2n1 [Example 11, N-(2-(2-methoxyethyl)-6-morpholino-2H-indazol-5-yl)-3-nitrobenzamide] |  |  | 40.4% | 56.9% | 
3 | CS(=O)(=O)CCn1ncc2cc(NC(=O)c3cccc([N+](=O)[O-])c3)c(N3CCOCC3)cc21 [Example 52, N-(1-(2-(methylsulfonyl)ethyl)-6-morpholino-1H-indazol-5-yl)-3-nitrobenzamide] | 0% |  | 21.2% |  | 
4 | NC(=O)COCCn1cc2cc(NC(=O)c3cccc(S(N)(=O)=O)c3)c(N3CCOCC3)cc2n1 [Example 17, N-(2-(2-(2-amino-2-oxoethoxy)ethyl)-6-morpholino-2H-indazol-5-yl)-3-sulfamoylbenzamide] | 33.1% | 63.4% | 76.7% |  | pIC50 [2]: 6.48
5 | CC(C)(O)CCn1cc2cc(NC(=O)c3cccc([N+](=O)[O-])c3F)c(N3CCOCC3)cc2n1 [Example 22, 2-fluoro-N-(2-(3-hydroxy-3-methylbutyl)-6-morpholino-2H-indazol-5-yl)-3-nitrobenzamide] | 30.3% | 47.2% | 88.3% |  | pIC50 [2]: 7.39
6 | CC(C)(O)CCn1cc2cc(NC(=O)c3cccc(S(N)(=O)=O)c3)c(-c3ccc(C(=O)NCC(F)(F)F)cc3)cc2n1 [Example 42, N-(2-(3-hydroxy-3-methylbutyl)-6-(4-((2,2,2-trifluoroethyl)carbamoyl)phenyl)-2H-indazol-5-yl)-3-sulfamoylbenzamide] |  |  | 65.1% |  | 
7 | NC(=O)COCCn1cc2cc(NC(=O)c3cccc(C(N)=O)c3)c(N3CCOCC3)cc2n1 [Example 18, N-(2-(2-(2-amino-2-oxoethoxy)ethyl)-6-morpholino-2H-indazol-5-yl)isophthalamide] |  | 23.2% | 54.8% | 65.6% | 
8 | CCOC(=O)[C@H](NC(=O)c1ccc(-c2cc3nn(CCC(C)(C)O)cc3cc2NC(=O)c2cccc(S(N)(=O)=O)c2)cc1)C(C)C [Example 47, Ethyl (4-(2-(3-hydroxy-3-methylbutyl)-5-(3-sulfamoylbenzamido)-2H-indazol-6-yl)benzoyl)-D-valinate] | 1.3% |  | 56.8% |  | 
9 | CC(C)(O)CCn1cc2cc(NC(=O)c3cccc(-c4nccs4)c3)c(N3CCOCC3)cc2n1 [Example 27, N-(2-(3-hydroxy-3-methylbutyl)-6-morpholino-2H-indazol-5-yl)-3-(thiazol-2-yl)benzamide] | 17.6% | 25.3% | 57.3% |  | 
10 | N-(1-(3-hydroxy-3-methylbutyl)-6-morpholino-1H-indazol-5-yl)-3-nitrobenzamide [Example 28] |  |  |  |  | IRAK1 %enzyme inhibition (1 uM) ([1]; test compound 1 uM): 9.10%; IRAK4 %enzyme inhibition (0.1 uM) ([2]; test compound 0.1 uM): 56.1%; IRAK4 %enzyme inhibition (1 uM) ([2]; test compound 1 uM): 89.9%
11 | CC(C)(O)CCn1cc2cc(NC(=O)c3ccc(F)c([N+](=O)[O-])c3)c(N3CCOCC3)cc2n1 [Example 26, 4-fluoro-N-(2-(3-hydroxy-3-methylbutyl)-6-morpholino-2H-indazol-5-yl)-3-nitrobenzamide] | 31.7% | 40.2% | 71.3% |  | pIC50 [2]: 6.72
12 | CN(C)CCn1cc2cc(NC(=O)c3cccc([N+](=O)[O-])c3)c(N3CCOCC3)cc2n1 [Example 10, N-(2-(2-(dimethylamino)ethyl)-6-morpholino-2H-indazol-5-yl)-3-nitrobenzamide] |  |  | 49.5% | 83.4% | pIC50 [2]: 7.00
13 | O=C(Nc1cc2cn(CCN3CCCCC3)nc2cc1N1CCOCC1)c1cccc([N+](=O)[O-])c1 [Example 9, N-(6-morpholino-2-(2-(piperidin-1-yl)ethyl)-2H-indazol-5-yl)-3-nitrobenzamide] |  |  | 56.9% | 79.5% | 

Now from value to compound, other results behind:

Row | inhibition at 0.1 µM [1] | inhibition at 1 µM ([1]; test compound 1 uM) | inhibition at 0.1 µM ([2]; test compound 0.1 uM) | inhibition at 1 µM ([2]; test compound 1 uM) | Compound | other results
14 | 5.7% | 12.9% | 55.2% |  | CC(C)(O)CCn1cc2cc(NC(=O)c3cccc(-c4ccsc4)n3)c(N3CCOCC3)cc2n1 [Example 36, N-(2-(3-hydroxy-3-methylbutyl)-6-morpholino-2H-indazol-5-yl)-6-(thiophen-3-yl)picolinamide] | 
15 |  |  | 35.5% | 67% | CC(C)(O)CCn1cc2cc(NC(=O)c3cccc(C(N)=O)c3)c(-c3ccoc3)cc2n1 [Example 6, N-(6-(furan-3-yl)-2-(3-hydroxy-3-methylbutyl)-2H-indazol-5-yl)isophthalamide] | 
16 |  |  | 27.9% | 35.4% | CC(C)(O)CCn1cc2cc(NC(=O)c3cncc([N+](=O)[O-])c3)c(-c3ccoc3)cc2n1 [Example 5, N-(6-(furan-3-yl)-2-(3-hydroxy-3-methylbutyl)-2H-indazol-5-yl)-5-nitronicotinamide] | 
17 | 0.4% |  | 69% |  | CNC(=O)CNC(=O)c1ccc(-c2cc3nn(CCC(C)(C)O)cc3cc2NC(=O)c2cccc([N+](=O)[O-])c2)cc1 [Example 41, N-(2-(3-hydroxy-3-methylbutyl)-6-(4-((2-(methylamino)-2-oxoethyl)carbamoyl)phenyl)-2H-indazol-5-yl)-3-nitrobenzamide] | 
18 | 3.2% |  | 57.5% |  | CC(C)(O)CCn1cc2cc(NC(=O)c3cccc(S(N)(=O)=O)c3)c(-c3ccc(C(N)=O)cc3)cc2n1 [Example 46, N-(6-(4-carbamoylphenyl)-2-(3-hydroxy-3-methylbutyl)-2H-indazol-5-yl)-3-sulfamoylbenzamide] | 
19 |  |  | 31.5% |  | CN(C)CCn1cc2cc(NC(=O)c3cccc(-c4nccs4)c3)c(-c3ccsc3)cc2n1 [Example 12, N-(2-(2-(dimethylamino)ethyl)-6-(thiophen-3-yl)-2H-indazol-5-yl)-3-(thiazol-2-yl)benzamide] | 
20 |  |  | 21.7% | 50.3% | CC(C)(O)CCn1cc2cc(NC(=O)c3cccc([N+](=O)[O-])c3)c(-c3ccsc3)cc2n1 [Example 8, N-(2-(3-hydroxy-3-methylbutyl)-6-(thiophen-3-yl)-2H-indazol-5-yl)-3-nitrobenzamide] | 
21 |  |  | 42.1% | 67.4% | CC(C)(O)CCn1cc2cc(NC(=O)c3cccc([N+](=O)[O-])c3)c(-c3ccoc3)cc2n1 [Example 4, N-(6-(furan-3-yl)-2-(3-hydroxy-3-methylbutyl)-2H-indazol-5-yl)-3-nitrobenzamide] | 
22 |  |  | 61.9% |  | CONC(=O)c1ccc(-c2cc3nn(CCC(C)(C)O)cc3cc2NC(=O)c2cccc(S(N)(=O)=O)c2)cc1 [Example 44, N-(2-(3-hydroxy-3-methylbutyl)-6-(4-(methoxycarbamoyl)phenyl)-2H-indazol-5-yl)-3-sulfamoylbenzamide] | 
23 |  |  | 28.1% | 57.7% | CC(C)(O)CCn1cc2cc(NC(=O)c3cncc([N+](=O)[O-])c3)c(-c3ccsc3)cc2n1 [Example 7, N-(2-(3-hydroxy-3-methylbutyl)-6-(thiophen-3-yl)-2H-indazol-5-yl)-5-nitronicotinamide] | 
